According to PMC2630366 (The Journal of pharmacology and experimental therapeutics, 2008):
Read-outs that look alike come from different tables or passages of the source. Where no end group is shown, it is not given here.

What was measured:
Swiss mice = assay: Mouse righting reflex recovery test, Swiss mice; assay type: in vivo; details: diazepam 15 mg/kg i.p., 16 mice per group
NPSR^+/+ mice = assay: Mouse righting reflex recovery test, NPSR^+/+ mice; assay type: in vivo; details: diazepam 15 mg/kg i.p.
NPSR^-/- mice = assay: Mouse righting reflex recovery test, NPSR^-/- mice; assay type: in vivo; details: diazepam 15 mg/kg i.p.
native hPAR2 = target: T1, native hPAR2 (Homo sapiens, UniProt P55085); assay: Selectivity: calcium mobilization, native hPAR2 in A549 cells; assay type: cell-based
T1 sequence (P55085 26-397): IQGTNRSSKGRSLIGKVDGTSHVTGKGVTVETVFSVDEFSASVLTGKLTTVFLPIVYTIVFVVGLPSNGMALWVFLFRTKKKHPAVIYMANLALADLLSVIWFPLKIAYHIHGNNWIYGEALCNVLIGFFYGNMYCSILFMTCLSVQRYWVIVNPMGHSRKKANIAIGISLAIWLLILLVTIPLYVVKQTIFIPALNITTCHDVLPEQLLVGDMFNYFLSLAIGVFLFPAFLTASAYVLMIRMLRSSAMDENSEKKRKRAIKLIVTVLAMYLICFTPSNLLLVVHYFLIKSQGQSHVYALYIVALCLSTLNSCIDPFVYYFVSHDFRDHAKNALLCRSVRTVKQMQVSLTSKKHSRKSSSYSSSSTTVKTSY

mice [1] = details: 50 mgs/kg, ref Okamura et al., 2008; cited from earlier work
[2] = ref Okamura et al., 2008; cited from earlier work
mice [3] = details: administered into the amygdala in mice; ref Jungling et al., 2008; cited from earlier work

## CN1C(=O)CN=C(c2ccccc2)c2cc(Cl)ccc21 [diazepam]
Swiss mice
  percent of animals losing the righting reflex: 92%
NPSR^+/+ mice; 10-12 mice per group
  percent of animals losing the righting reflex: 100%
NPSR^+/+ mice; mean ± sem of 10-12 mice
  sleeping time (time to regain the RR): 180 ± 18 min
NPSR^-/- mice; 10-12 mice per group
  percent of animals losing the righting reflex: 100%
NPSR^-/- mice; mean ± sem of 10-12 mice
  sleeping time (time to regain the RR): 211 ± 19 min

## SLIGKV-NH2 [SLIGKV-NH2]
Native hPAR2
  EC50: 21.9 µM
Native hPAR2; A549, read-out: Emax, control
  Emax: 449 ± 25%
Native hPAR2; A549, read-out: Emax, in presence of [D-Cys(tBu)^5]NPS 10 μM
  Emax: 433 ± 37%

## O=C(NCc1ccc(F)cc1)N1CCN2C(=O)OC(c3ccccc3)(c3ccccc3)C2C1 (centres unmarked) [SHA 68, 3-oxo-1,1-diphenyl-tetrahydro-oxazolo[3,4-a]pyrazine-7-carboxylic acid 4-fluoro-benzylamide]
Mice [1]
  effect on NPS-stimulated locomotion: able to partially counteract the stimulatory effects of NPS on locomotion
[2]
  blood brain barrier penetration: limited blood brain barrier penetration
Mice [3]
  effect on anxiety and extinction of conditioned fear responses: exerts functionally opposing responses
